# From patent publication US9815847B2 (Icahn School of Medicine at Mount Sinai, priority 2013, dated 2017)
# Experiments:
# [1] = test system: K562; test: Cytotoxicity on K562 cancer cell line; assay type: cell-based; details: Homo sapiens; K562 chronic myelogenous leukemia; 96 h; 0.01-100 μM
# Procedure: (§1) The effect of the compounds described herein on tumor cells was determined by the assay described by Latham et al., Oncogene 12:827-837 (1996). Tumor cells K562 (chronic myelogenous leukemia; leukemia cell line +ve for Bcr-Abl) or DU145 (prostate cancer) were plated in 12-well dishes at a cell density of 2.5×10^4 cells per well. The plated cells were treated 24 h. later with a DMSO solution of a compound as described herein at multiple concentrations ranging from 0.01 μM to 100 μM. The plates were examined 96 h. later under an inverted microscope, Olympus CK-2 using a 10× objective, and compound activity was noted by physical observation. When necessary, the total number of viable cells was determined by trypsinizing the wells and counting the number of viable cells, as determined by trypan blue exclusion, using a hemacytometer.
# [2] = test system: DU145; test: Cytotoxicity on DU145 cancer cell line; assay type: cell-based; details: Homo sapiens, DU-145; DU145 prostate cancer; 96 h; 0.01-100 μM
# Procedure: as §1
SMILES,IC50 [1] [µM],IC50 [2] [µM]
"CNc1nc(Nc2ccc3[nH]ccc3c2)ncc1/C=C/S(=O)(=O)c1ccc(F)cc1F [Compound 15a, 5-{2-[2,4-(Difluorophenyl)sulfonyl]vinyl}-N^2-(1H-indol-5-yl)-N^4-methylpyrimidine-2,4-diamine]",1 to 25,1 to 25
"CN1CCN(c2ccc(Nc3ncc(/C=C/S(=O)(=O)c4ccc(F)cc4F)c(NC4CCCC4)n3)cc2)CC1 [Compound 15b, N^4-Cyclopentyl-5-{2-[(2,4-difluorophenyl)sulfonyl]vinyl}-N^2-[4-(4-methylpiperazin-1-yl)phenyl]pyrimidine-2,4-diamine]",1 to 25,1 to 25
"COc1ccc(S(=O)(=O)/C=C/c2cnc(Nc3ccc(N4CCN(C)CC4)cc3)nc2Nc2ccn(C)n2)cc1 [Compound 15q, (E)-5-{2-[(4-Methoxyphenyl)sulfonyl]vinyl}-N^4-(1-methyl-1H-pyrazol-3-yl)-N^2-[4-(4-methylpiperazin-1-yl)phenyl]pyrimidine-2,4-diamine]",< 1,1 to 25
"Cn1ccc(Nc2nc(Nc3ccc(N4CCOCC4)cc3)ncc2/C=C/S(=O)(=O)c2ccc(F)cc2F)n1 [Compound 15t, (E)-5-{2-[(2,4-Difluorophenyl)sulfonyl]vinyl}-N-(1-methyl-1H-pyrazol-3-yl)-N^2-(4-morpholinophenyl)pyrimidine-2,4-diamine]",1 to 25,1 to 25
"Cn1ccc(Nc2nc(Nc3ccc4[nH]ccc4c3)ncc2/C=C/S(=O)(=O)c2ccc(F)cc2F)n1 [Compound 15s, (E)-5-{2-[(2,4-Difluorophenyl)sulfonyl]vinyl}-N^2-(1H-indol-5-yl)-N^4-(1-methyl-1H-pyrazol-3-yl)pyrimidine-2,4-diamine]",1 to 25,1 to 25
COc1ccc(Nc2ncc(/C=C/C#N)c(NCC3CC3)n2)cc1 [Compound 8s],1 to 25,1 to 25
"CCOC(=O)/C=C/c1cnc(Nc2ccc(N3CCN(C)CC3)cc2)nc1NC1CCCC1 [Compound 21, (E)-3-[4-(Cyclopentylamino)-2-{[4-(4-methylpiperazin-1-yl)phenyl]amino}pyrimidin-5-yl]acrylic acid ethyl ester]",< 1,1 to 25
"CN1CCN(c2ccc(Nc3ncc(/C=C/C#N)c(Nc4ccn(C)n4)n3)cc2)CC1 [Compound 8aa, (E)-3-(4-[(1-Methyl-1H-pyrazol-3-yl)amino]-2-{[4-(4-methylpiperazin-1-yl)phenyl]amino}pyrimidin-5-yl)acrylonitrile]",1 to 25,1 to 25
"CNc1nc(Nc2ccc(N3CCOCC3)cc2)ncc1/C=C/S(=O)(=O)c1ccc(F)cc1F [Compound 15e, (E)-5-{2-[(2,4-Difluorophenyl)sulfonyl]vinyl}-N^4-methyl-N^2-(4-morpholinophenyl)pyrimidine-2,4-diamine]",50 to 100,50 to 100
"CCNc1nc(Nc2ccc(N3CCN(C)CC3)cc2)ncc1/C=C/C#N [Compound 8c, 3-{4-Ethylamino-2-[4-(4-methylpiperazin-1-yl)phenylamino]pyrimidin-5-yl}acrylonitrile]",< 1,< 1
"CCN(C)c1nc(Nc2ccc(N3CCN(C)CC3)cc2)ncc1/C=C/C#N [Compound 8v, 3-{4-(N-Ethyl-N-methylamino)-2-[4-(4-methylpiperazin-1-yl)phenylamino]pyrimidin-5-yl}acrylonitrile]",25 to 50,25 to 50
